From the supplement of paper PMC10307832

Assays:
Assay in all cases: relative viability (nuclei count vs DMSO), 5 days (fraction); higher = more cells survive
[1] = compound: CC1=C(C(=O)N2C=CSC2=N1)CCN3CCC(=C(C4=CC=CC=C4)C5=CC=C(C=C5)F)CC3 + CC(=O)c1c(C)c2cnc(Nc3ccc(N4CCNCC4)cn3)nc2n(C2CCCC2)c1=O [Palbociclib] (partner 0.5 µM)
Method in brief: (§1)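 Cells from lung cancer lines were seeded into 1536-well plates and, one day later, dosed by pin tool. Treatments were either a single drug or a fixed dose of an anchor drug with five library-drug doses (not always all listed) in √10 steps. After 5 days, nuclei were stained in a one-step fixation (final 0.05% Triton X-100, 1% formaldehyde, 1 ug/ml Hoechst) and counted on 4× images, and relative viability is the treated-to-vehicle nuclei ratio, as the median of duplicate plates.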

[2] = compound: CC1=C(C(=O)N2C=CSC2=N1)CCN3CCC(=C(C4=CC=CC=C4)C5=CC=C(C=C5)F)CC3 + Nc1nc2[nH]cc(CCc3ccc(C(=O)N[C@@H](CCC(=O)O)C(=O)O)cc3)c2c(=O)[nH]1 [Pemetrexed] (partner 0.2 µM)
Method in brief: as §1

[3] = compound: CC1=C(C(=O)N2C=CSC2=N1)CCN3CCC(=C(C4=CC=CC=C4)C5=CC=C(C=C5)F)CC3 + Cc1nc(NC(=O)N2CCC[C@H]2C(N)=O)sc1-c1ccnc(C(C)(C)C(F)(F)F)c1 [Alpelisib] (partner 2 µM)
Method in brief: as §1

[4] = compound: CC1=C(C(=O)N2C=CSC2=N1)CCN3CCC(=C(C4=CC=CC=C4)C5=CC=C(C=C5)F)CC3 + O=C(c1cc(Cc2n[nH]c(=O)c3ccccc23)ccc1F)N1CCN(C(=O)C2CC2)CC1 [Olaparib] (partner 8 µM)
Method in brief: as §1

| Cell Line | relative viability ([1]; first compound 0.08 µM) | relative viability ([1]; first compound 0.253 µM) | relative viability ([1]; first compound 0.8 µM) | relative viability ([1]; first compound 2.53 µM) | relative viability ([1]; first compound 8 µM) | relative viability ([2]; first compound 0.08 µM) | relative viability ([2]; first compound 0.253 µM) | relative viability ([2]; first compound 0.8 µM) | relative viability ([2]; first compound 2.53 µM) | relative viability ([2]; first compound 8 µM) | relative viability ([3]; first compound 0.08 µM) | relative viability ([3]; first compound 0.253 µM) | relative viability ([3]; first compound 0.8 µM) | relative viability ([3]; first compound 2.53 µM) | relative viability ([3]; first compound 8 µM) | relative viability ([4]; first compound 0.08 µM) | relative viability ([4]; first compound 0.253 µM) | relative viability ([4]; first compound 0.8 µM) | relative viability ([4]; first compound 2.53 µM) | relative viability ([4]; first compound 8 µM) |
| --- | --- | --- | --- | --- | --- | --- | --- | --- | --- | --- | --- | --- | --- | --- | --- | --- | --- | --- | --- | --- |
| NCI-H1734 | 0.367 | 0.342 | 0.324 | 0.318 | 0.378 | 0.487 | 0.452 | 0.391 | 0.424 | 0.399 | 0.727 | 0.648 | 0.718 | 0.713 | 0.422 | 0.554 | 0.526 | 0.624 | 0.767 | 0.396 |
| NCI-H1755 | 0.433 | 0.429 | 0.395 | 0.426 | 0.432 | 0.456 | 0.437 | 0.41 | 0.405 | 0.38 | 0.807 | 0.856 | 0.994 | 1.07 | 0.69 | 0.892 | 0.995 | 0.939 | 0.934 | 0.719 |
| NCI-H1792 | 0.353 | 0.663 | 0.649 | 0.564 | 0.271 | 0.523 | 0.543 | 0.606 | 0.626 | 0.293 | 0.679 | 0.6 | 0.722 | 0.611 | 0.545 | 0.318 | 0.357 | 0.631 | 0.603 | 0.348 |
| NCI-H1793 | 0.212 | 0.311 | 0.272 | 0.345 | 0.318 | 0.72 | 0.715 | 0.796 | 1.12 | 0.794 | 0.642 | 0.654 | 0.663 | 0.886 | 0.553 | 0.536 | 0.807 | 0.937 | 1.08 | 0.521 |
| NCI-H1915 | 0.559 | 0.542 | 0.496 | 0.498 | 0.397 | 0.576 | 0.44 | 0.493 | 0.517 | 0.44 | 1.1 | 1.11 | 1.07 | 1.06 | 0.782 | 0.254 | 0.272 | 0.284 | 0.238 | 0.223 |
| NCI-H1944 | 0.305 | 0.31 | 0.341 | 0.29 | 0.259 | 0.626 | 0.663 | 0.596 | 0.591 | 0.499 | 0.917 | 0.815 | 0.842 | 0.865 | 0.777 | 0.422 | 0.446 | 0.38 | 0.383 | 0.359 |
| NCI-H1975 | 0.601 | 0.493 | 0.598 | 0.795 | 0.348 | 0.292 | 0.265 | 0.312 | 0.291 | 0.236 | 0.674 | 0.616 | 0.656 | 0.667 | 0.451 | 0.674 | 0.714 | 0.899 | 0.852 | 0.433 |
| NCI-H1993 | 0.583 | 0.619 | 0.592 | 0.705 | 0.614 | 0.617 | 0.622 | 0.645 | 0.671 | 0.468 | 0.683 |  | 0.694 | 0.699 | 0.669 | 1 | 0.944 | 1.01 | 1.3 | 0.838 |
| NCI-H2009 | 0.231 | 0.175 | 0.186 | 0.204 | 0.21 | 1.04 | 1.1 | 1.04 | 1.12 | 0.938 | 1.26 | 1.16 | 1.2 | 1.19 | 1.08 | 0.716 | 0.706 | 0.654 | 0.721 | 0.581 |
| NCI-H2023 | 0.386 | 0.316 | 0.427 | 0.389 | 0.299 | 0.288 | 0.199 | 0.239 | 0.333 | 0.246 | 0.579 | 0.587 | 0.549 | 0.697 | 0.584 | 0.563 | 0.454 | 0.509 | 0.607 | 0.394 |
| NCI-H2085 | 0.498 | 0.506 | 0.474 | 0.533 | 0.469 | 0.966 | 0.964 | 0.759 | 0.955 | 0.883 | 0.869 | 0.909 | 0.928 | 0.943 | 0.773 | 0.805 | 0.776 | 0.807 | 0.783 | 0.735 |
| NCI-H2087 | 0.279 | 0.237 | 0.236 | 0.227 | 0.238 | 0.634 | 0.686 | 0.595 | 0.682 | 0.599 | 0.999 | 1.1 | 1.06 | 1.24 | 0.763 | 0.564 | 0.559 | 0.57 | 0.756 | 0.445 |
